From US7799809B2, “Carboxamide compounds and their use as calpain inhibitors” (Abbott GmbH & Co. KG, priority 2006, dated 2010)

Columns and labels:
Assay type in all cases: biochemical
cathepsin K = target: T1, cathepsin K (Homo sapiens, UniProt P43235); assay: Cathepsin K enzyme inhibition in vitro (kinetic fluorescence assay); conditions: cathepsin K activated from recombinant human procathepsin K vs calpain I
T1 construct: purchased Calbiochem 342001; host or cells: E. coli
T1 sequence (P43235 115-329): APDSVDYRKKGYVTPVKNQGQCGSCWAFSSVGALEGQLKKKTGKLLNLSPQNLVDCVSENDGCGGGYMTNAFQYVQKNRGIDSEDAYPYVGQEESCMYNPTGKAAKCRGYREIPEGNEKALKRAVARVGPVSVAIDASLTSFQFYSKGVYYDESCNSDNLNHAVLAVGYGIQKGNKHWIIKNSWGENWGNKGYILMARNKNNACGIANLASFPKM

cathepsin S = target: T2, cathepsin S (Homo sapiens, UniProt P25774); assay: Cathepsin S enzyme inhibition in vitro (kinetic fluorescence assay); conditions: recombinant human cathepsin S vs calpain I
T2 construct: purchased Calbiochem 219343; host or cells: E. coli
T2 sequence (P25774 115-331): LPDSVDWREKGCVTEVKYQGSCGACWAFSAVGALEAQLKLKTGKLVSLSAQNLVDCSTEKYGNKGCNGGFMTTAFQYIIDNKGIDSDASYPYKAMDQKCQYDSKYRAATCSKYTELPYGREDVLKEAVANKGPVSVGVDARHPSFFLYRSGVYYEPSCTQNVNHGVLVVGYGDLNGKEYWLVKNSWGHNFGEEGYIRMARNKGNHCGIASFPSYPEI
Outline: (§1)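 Cathepsin B (0.25 nM, human liver) with 100 μM Z-Phe-Arg-AMC; L (1 nM, human liver) with 2 μM Z-Phe-Arg-AMC; S (0.5 nM, recombinant) with 20 μM Z-Val-Val-Arg-AMC. pH 6.0 MES buffer, 2.5 mM L-cysteine, room temperature. Kinetic fluorescence (ex 390/em 460 nm); apparent Ki from IC50 by Cheng-Prusoff.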

cathepsin B = target: T3, cathepsin B (Homo sapiens, UniProt P07858); assay: Cathepsin B enzyme inhibition in vitro (kinetic fluorescence assay); conditions: cathepsin B isolated from human liver vs calpain I
T3 construct: cathepsin B—isolated from human liver (Calbiochem #219362); purchased Calbiochem 219362; host or cells: human liver (tissue-derived)
Outline: as §1

cathepsin L = target: T4, cathepsin L (Homo sapiens, UniProt P07711); assay: Cathepsin L enzyme inhibition in vitro (kinetic fluorescence assay); conditions: cathepsin L isolated from human liver vs calpain I
T4 construct: cathepsin L—isolated from human liver (Calbiochem #219402); purchased Calbiochem 219402; host or cells: human liver (tissue-derived)
T4 sequence (P07711 114-333): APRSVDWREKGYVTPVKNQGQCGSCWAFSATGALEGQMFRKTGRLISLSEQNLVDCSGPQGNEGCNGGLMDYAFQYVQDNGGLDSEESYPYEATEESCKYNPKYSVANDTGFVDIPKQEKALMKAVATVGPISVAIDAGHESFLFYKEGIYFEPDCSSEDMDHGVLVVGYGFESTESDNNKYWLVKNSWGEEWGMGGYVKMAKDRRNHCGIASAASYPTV
Outline: as §1

Compound	Sel cat. K: Ki(cathepsin K)/Ki(calpain) ratio (cathepsin K)	Sel cat. S: Ki(cathepsin S)/Ki(calpain) ratio (cathepsin S)	Sel cat. B: Ki(cathepsin B)/Ki(calpain) ratio (cathepsin B)	Sel cat. L: Ki(cathepsin L)/Ki(calpain) ratio (cathepsin L)
Cl.NC(=O)C(=O)C(Cc1cccnc1)NC(=O)c1cccnc1-n1ccc(-c2ccccc2)n1 (centres unmarked) [Example 88, N-[3-Amino-2,3-dioxo-1-(pyridin-3-ylmethyl)propyl]-2-(3-phenyl-1H-pyrazol-1-yl)pyridine-3-carboxamide hydrochloride]	++ (++ means a Ki(cathepsin K)/Ki(calpain) ratio of ≧30)	++ (++ means a Ki(cathepsin S)/Ki(calpain) ratio of ≧100)	+ (+ means 10≦Ki(cathepsin B)/Ki(calpain)<30)	++ (++ means a Ki(cathepsin L)/Ki(calpain) ratio of ≧50)
COc1ccc(CC(NC(=O)c2cccnc2-n2ccc(-c3ccc(F)cc3OC)n2)C(=O)C(N)=O)cc1 (centres unmarked) [Example 136, N-(3-Amino-1-{[4-(methyloxy)phenyl]methyl}-2,3-dioxopropyl)-2-{3-[4-fluoro-2-(methyloxy)phenyl]-1H-pyrazol-1-yl}pyridine-3-carboxamide]	++ (++ means a Ki(cathepsin K)/Ki(calpain) ratio of ≧30)	++ (++ means a Ki(cathepsin S)/Ki(calpain) ratio of ≧100)	++ (++ means a Ki(cathepsin B)/Ki(calpain) ratio of ≧30)	++ (++ means a Ki(cathepsin L)/Ki(calpain) ratio of ≧50)
NC(=O)C(=O)C(Cc1ccccc1)NC(=O)c1cccnc1-n1ccc(-c2cccc3c2OC(F)(F)O3)n1 (centres unmarked) [Example 119, N-[3-Amino-2,3-dioxo-1-(phenylmethyl)propyl]-2-[3-(2,2-difluoro-1,3-benzodioxol-4-yl)-1H-pyrazol-1-yl]pyridine-3-carboxamide]	++ (++ means a Ki(cathepsin K)/Ki(calpain) ratio of ≧30)	++ (++ means a Ki(cathepsin S)/Ki(calpain) ratio of ≧100)	++ (++ means a Ki(cathepsin B)/Ki(calpain) ratio of ≧30)	++ (++ means a Ki(cathepsin L)/Ki(calpain) ratio of ≧50)
COc1ccc2c(c1)OCc1cn(-c3ncccc3C(=O)NC(Cc3ccccc3)C(=O)C(N)=O)nc1-2 (centres unmarked) [Example 142, N-[3-Amino-2,3-dioxo-1-(phenylmethyl)propyl]-2-[7-(methyloxy)chromeno[4,3-c]pyrazol-2(4H)-yl]pyridine-3-carboxamide]	+ (+ means 10≦Ki(cathepsin K)/Ki(calpain)<30)	++ (++ means a Ki(cathepsin S)/Ki(calpain) ratio of ≧100)	+ (+ means 10≦Ki(cathepsin B)/Ki(calpain)<30)	++ (++ means a Ki(cathepsin L)/Ki(calpain) ratio of ≧50)
N-{3-Amino-1-[(4-fluorophenyl)methyl]-2,3-dioxopropyl}-2-[3-(2-chloro-3-fluorophenyl)-1H-pyrazol-1-yl]pyridine-3-carboxamide [Example 154]	++ (++ means a Ki(cathepsin K)/Ki(calpain) ratio of ≧30)	++ (++ means a Ki(cathepsin S)/Ki(calpain) ratio of ≧100)	++ (++ means a Ki(cathepsin B)/Ki(calpain) ratio of ≧30)	++ (++ means a Ki(cathepsin L)/Ki(calpain) ratio of ≧50)
NC(=O)C(=O)C(Cc1ccccc1)NC(=O)c1cccnc1-n1ccc(-c2sccc2Cl)n1 (centres unmarked) [Example 109, N-[3-Amino-2,3-dioxo-1-(phenylmethyl)propyl]-2-[3-(3-chloro-2-thienyl)-1H-pyrazol-1-yl]pyridine-3-carboxamide]	++ (++ means a Ki(cathepsin K)/Ki(calpain) ratio of ≧30)	++ (++ means a Ki(cathepsin S)/Ki(calpain) ratio of ≧100)	++ (++ means a Ki(cathepsin B)/Ki(calpain) ratio of ≧30)	++ (++ means a Ki(cathepsin L)/Ki(calpain) ratio of ≧50)
NC(=O)C(=O)C(Cc1ccccc1)NC(=O)c1cccnc1-n1ccc(-c2ccc3c(c2)OC(F)(F)O3)n1 (centres unmarked) [Example 118, N-[3-Amino-2,3-dioxo-1-(phenylmethyl)propyl]-2-[3-(2,2-difluoro-1,3-benzodioxol-5-yl)-1H-pyrazol-1-yl]pyridine-3-carboxamide]	+ (+ means 10≦Ki(cathepsin K)/Ki(calpain)<30)	++ (++ means a Ki(cathepsin S)/Ki(calpain) ratio of ≧100)	++ (++ means a Ki(cathepsin B)/Ki(calpain) ratio of ≧30)	++ (++ means a Ki(cathepsin L)/Ki(calpain) ratio of ≧50)
NC(=O)C(=O)C(Cc1ccccc1)NC(=O)c1cccnc1-n1cc2c(n1)-c1ccccc1SC2 (centres unmarked) [Example 173, N-[3-Amino-2,3-dioxo-1-(phenylmethyl)propyl]-2-thiochromeno[4,3-c]pyrazol-2(4H)-ylpyridine-3-carboxamide]	+ (+ means 10≦Ki(cathepsin K)/Ki(calpain)<30)	++ (++ means a Ki(cathepsin S)/Ki(calpain) ratio of ≧100)	+ (+ means 10≦Ki(cathepsin B)/Ki(calpain)<30)	++ (++ means a Ki(cathepsin L)/Ki(calpain) ratio of ≧50)
COc1ccc(CC(NC(=O)c2cccnc2-n2ccc(-c3ccccc3)n2)C(=O)C(N)=O)cc1 (centres unmarked) [Example 80, N-[3-Amino-1-(4-methoxybenzyl)-2,3-dioxopropyl]-2-(3-phenyl-1H-pyrazol-1-yl)nicotinamide]	+ (+ means 10≦Ki(cathepsin K)/Ki(calpain)<30)	++ (++ means a Ki(cathepsin S)/Ki(calpain) ratio of ≧100)	++ (++ means a Ki(cathepsin B)/Ki(calpain) ratio of ≧30)	++ (++ means a Ki(cathepsin L)/Ki(calpain) ratio of ≧50)
COc1ccc(CC(NC(=O)c2cccnc2-n2ccc(-c3ccc(F)cc3Cl)n2)C(=O)C(N)=O)cc1 (centres unmarked) [Example 111, N-(3-Amino-1-{[4-(methyloxy)phenyl]methyl}-2,3-dioxopropyl)-2-[3-(2-chloro-4-fluorophenyl)-1H-pyrazol-1-yl]pyridine-3-carboxamide]	++ (++ means a Ki(cathepsin K)/Ki(calpain) ratio of ≧30)	++ (++ means a Ki(cathepsin S)/Ki(calpain) ratio of ≧100)	++ (++ means a Ki(cathepsin B)/Ki(calpain) ratio of ≧30)	++ (++ means a Ki(cathepsin L)/Ki(calpain) ratio of ≧50)
NC(=O)C(=O)C(Cc1ccccc1)NC(=O)c1cccnc1-n1ccc(-c2cccs2)n1 (centres unmarked) [Example 55, N-(3-Amino-1-benzyl-2,3-dioxopropyl)-2-[3-(2-thienyl)-1H-pyrazol-1-yl]nicotinamide]	+ (+ means 10≦Ki(cathepsin K)/Ki(calpain)<30)	++ (++ means a Ki(cathepsin S)/Ki(calpain) ratio of ≧100)	+ (+ means 10≦Ki(cathepsin B)/Ki(calpain)<30)	++ (++ means a Ki(cathepsin L)/Ki(calpain) ratio of ≧50)
